Test results from the NIST ThermoML archive (doi:10.1016/j.jct.2012.06.033).
Numbers after ± are expanded uncertainties.

What was measured:
[1] = Liquid, Ebulliometric method (Recirculating still)
[2] = refractive index (Na D-line) (dimensionless); conditions: 298.15 K; 101.33 kPa; Liquid; Standard Abbe refractometry

Row | SMILES | vapor or sublimation pressure ([1]; 343.15 K) | vapor or sublimation pressure ([1]; 353.15 K) | vapor or sublimation pressure ([1]; 363.15 K) | refractive index [2]
1 | ClCCCCCl [1,4-dichlorobutane] | 5.25 ± 0.03 kPa | 8.2 ± 0.04 kPa | 12.52 ± 0.05 kPa | 1.4522 ± 0.0004
2 | CC[N+](=O)[O-] [nitroethane] | 22.46 ± 0.13 kPa | 32.84 ± 0.17 kPa | 47.13 ± 0.22 kPa | 1.3895 ± 0.0007
3 | C[N+](=O)[O-] [nitromethane] | 34.93 ± 0.2 kPa | 50.14 ± 0.25 kPa | 70.81 ± 0.33 kPa | 1.3793 ± 0.0007
